# Target: T1, SlpA_amy_III (SlpA_amy_D3) (Lactobacillus amylovorus, UniProt E4SK47)
# T1 construct: gene LA2_00970; His-tagged, 15N-labelled, expressed in E. coli BL21 DE
# T1 sequence (E4SK47 322-456): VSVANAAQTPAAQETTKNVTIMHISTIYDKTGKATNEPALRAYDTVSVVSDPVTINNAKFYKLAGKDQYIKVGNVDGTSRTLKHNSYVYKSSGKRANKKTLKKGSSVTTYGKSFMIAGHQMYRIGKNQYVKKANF
# Test: 1H-15N HSQC NMR titration, mean Kd of per-residue shift fits
# Settings: 20 mM ADA, 50 mM NaCl, pH 6.5, 25 C, two binding areas TAB1 and TAB2
Substance,Kd (200 uM protein) [µM],Kd (300 uM protein) [µM]
GroP pentamer,500,
GroP trimer,,3500

# Source: paper PMC11181022, “The molecular architecture of Lactobacillus S-layer: Assembly and attachment to teichoic acids” (Proceedings of the National Academy of Sciences of the …, 2024)
